Test system: Human primary T cells
Test: IL-2 ELISA, human primary T cell, anti-CD3+CD28+ (whole cell assay)
Assay type: cell-based
Details: Homo sapiens, T-cell, 24 h, human primary T cells stimulated with anti-CD3 + anti-CD28, 24 hours
Outline: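 IL-2 secreted over 24 h at 37° C was quantified by ELISA after plate-bound αCD3 (1 μg/ml) and αCD28 (5 μg/ml) stimulation, or PMA (0.5 ng/ml) with ionomycin (0.1 μM) as counter-screen. Cells were IL-2-starved primary human T cells, expanded from volunteer PBMC and exposed to compound for 1 hr beforehand.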

Row | SMILES | IC50
1 | CN1C(C)(C)CC(Nc2nc(Nc3ccc(OC4CCS(=O)(=O)CC4)c(F)c3)ncc2F)CC1(C)C [III-29, N2-[4-(1,1-Dioxo-hexahydro-1λ6-thiopyran-4-yloxy)-3-fluoro-phenyl]-5-fluoro-N4-(1,2,2,6,6-pentamethyl-piperidin-4-yl)-pyrimidine-2,4-diamine] | > 1000 nM
2 | CN1C(C)(C)CC(Nc2nc(Nc3ccc(OC4CCN(CC(N)=O)CC4)c(F)c3)ncc2F)CC1(C)C [III-33, 2-(4-(2-Fluoro-4-(5-fluoro-4-(1,2,2,6,6-pentamethylpiperidin-4-ylamino)pyrimidin-2-ylamino)phenoxy)piperidin-1-yl)acetamide] | > 1000 nM
3 | CC1(C)CC(Nc2nc(Nc3ccc(OC4CCN(CC(N)=O)CC4)c(F)c3)ncc2F)CC(C)(C)N1 [III-34, 2-(4-(2-Fluoro-4-(5-fluoro-4-(2,2,6,6-tetramethylpiperidin-4-ylamino)pyrimidin-2-ylamino)phenoxy)piperidin-1-yl)acetamide] | > 1000 nM
4 | CN1C(C)(C)CC(Nc2nc(Nc3ccc(OC4CCN(CC(N)=O)CC4)c(OC(F)F)c3)ncc2F)CC1(C)C [III-35, 2-(4-(2-(Difluoromethoxy)-4-(5-fluoro-4-(1,2,2,6,6-pentamethylpiperidin-4-ylamino)pyrimidin-2-ylamino)phenoxy)piperidin-1-yl)acetamide] | 250 to 500 nM
5 | CN1C(C)(C)CC(Nc2nc(Nc3ccc(OC4CCN(CCO)CC4)c(OC(F)F)c3)ncc2F)CC1(C)C [III-37, 2-(4-(2-(Difluoromethoxy)-4-(5-fluoro-4-(1,2,2,6,6-pentamethylpiperidin-4-ylamino)pyrimidin-2-ylamino)phenoxy)piperidin-1-yl)ethanol] | < 250 nM
6 | CC(=O)N1CCC(Oc2ccc(Nc3ncc(F)c(NC4CC(C)(C)N(C)C(C)(C)C4)n3)cc2OC(F)F)CC1 [III-45, 1-(4-(2-(difluoromethoxy)-4-(5-fluoro-4-(1,2,2,6,6-pentamethylpiperidin-4-ylamino)pyrimidin-2-ylamino)phenoxy)piperidin-1-yl)ethanone] | 250 to 500 nM
7 | CC1(C)CC(Nc2nc(Nc3ccc(OC(C)(C)CCN4CCCC4)c(F)c3)ncc2F)CC(C)(C)N1 [III-46, 5-fluoro-N2-(3-fluoro-4-(2-methyl-4-(pyrrolidin-1-yl)butan-2-yloxy)phenyl)-N4-(2,2,6,6-tetramethylpiperidin-4-yl)pyrimidine-2,4-diamine] | 500 to 1000 nM
8 | CN1C(C)(C)CC(Nc2nc(Nc3ccc(OC(C)(C)CCN4CCCC4)c(F)c3)ncc2F)CC1(C)C [III-47, 5-fluoro-N2-(3-fluoro-4-(2-methyl-4-(pyrrolidin-1-yl)butan-2-yloxy)phenyl)-N4-(1,2,2,6,6-pentamethylpiperidin-4-yl)pyrimidine-2,4-diamine] | 500 to 1000 nM
9 | CC1(C)CC(Nc2nc(Nc3cc(F)c(OC(C)(C)CCN4CCCC4)c(F)c3)ncc2F)CC(C)(C)N1 [III-48, N2-(3,5-difluoro-4-(2-methyl-4-(pyrrolidin-1-yl)butan-2-yloxy)phenyl)-5-fluoro-N4-(2,2,6,6-tetramethylpiperidin-4-yl)pyrimidine-2,4-diamine] | > 1000 nM
10 | CN1C(C)(C)CC(Nc2nc(Nc3cc(F)c(OC(C)(C)CCN4CCCC4)c(F)c3)ncc2F)CC1(C)C [III-49, N2-(3,5-difluoro-4-(2-methyl-4-(pyrrolidin-1-yl)butan-2-yloxy)phenyl)-5-fluoro-N4-(1,2,2,6,6-pentamethylpiperidin-4-yl)pyrimidine-2,4-diamine] | > 1000 nM
11 | CN1C(C)(C)CC(Nc2nc(Nc3ccc(OC4CCN(CCF)CC4)c(OC(F)F)c3)ncc2F)CC1(C)C [III-51, N2-(3-(difluoromethoxy)-4-(1-(2-fluoroethyl)piperidin-4-yloxy)phenyl)-5-fluoro-N4-(1,2,2,6,6-pentamethylpiperidin-4-yl)pyrimidine-2,4-diamine] | < 250 nM
12 | CN1C(C)(C)CC(Nc2nc(Nc3ccc(OC4CCN(Cc5ccccc5)CC4)c(OC(F)F)c3)ncc2F)CC1(C)C [III-52, N2-(4-(1-benzylpiperidin-4-yloxy)-3-(difluoromethoxy)phenyl)-5-fluoro-N4-(1,2,2,6,6-pentamethylpiperidin-4-yl)pyrimidine-2,4-diamine] | 250 to 500 nM
13 | CC1(C)CC(Nc2nc(Nc3ccc(OC4CCN(CCOCc5ccccc5)CC4)c(F)c3)ncc2F)CC(C)(C)N1 [III-53, N2-(4-(1-(2-(benzyloxy)ethyl)piperidin-4-yloxy)-3-fluorophenyl)-5-fluoro-N4-(2,2,6,6-tetramethylpiperidin-4-yl)pyrimidine-2,4-diamine] | 500 to 1000 nM
14 | CN1C(C)(C)CC(Nc2nc(Nc3ccc(OC4CCN(CCOCc5ccccc5)CC4)c(F)c3)ncc2F)CC1(C)C [III-54, N2-(4-(1-(2-(benzyloxy)ethyl)piperidin-4-yloxy)-3-fluorophenyl)-5-fluoro-N4-(1,2,2,6,6-pentamethylpiperidin-4-yl)pyrimidine-2,4-diamine] | 500 to 1000 nM
15 | CC1(C)CC(Nc2nc(Nc3cc(F)c(OC4CCN(CCOCc5ccccc5)CC4)c(F)c3)ncc2F)CC(C)(C)N1 [III-55, N2-(4-(1-(2-(benzyloxy)ethyl)piperidin-4-yloxy)-3,5-difluorophenyl)-5-fluoro-N4-(2,2,6,6-tetramethylpiperidin-4-yl)pyrimidine-2,4-diamine] | 500 to 1000 nM
16 | CN1C(C)(C)CC(Nc2nc(Nc3cc(F)c(OC4CCN(CCOCc5ccccc5)CC4)c(F)c3)ncc2F)CC1(C)C [III-56, N2-(4-(1-(2-(benzyloxy)ethyl)piperidin-4-yloxy)-3,5-difluorophenyl)-5-fluoro-N4-(1,2,2,6,6-pentamethylpiperidin-4-yl)pyrimidine-2,4-diamine] | 500 to 1000 nM
17 | CC1(C)CC(Nc2nc(Nc3ccc(OC4CCN(CCO)CC4)c(F)c3)ncc2F)CC(C)(C)N1 [III-57, 2-(4-(2-fluoro-4-(5-fluoro-4-(2,2,6,6-tetramethylpiperidin-4-ylamino)pyrimidin-2-ylamino)phenoxy)piperidin-1-yl)ethanol] | > 1000 nM
18 | CN1C(C)(C)CC(Nc2nc(Nc3ccc(OC4CCN(CCO)CC4)c(F)c3)ncc2F)CC1(C)C [III-58, 2-(4-(2-fluoro-4-(5-fluoro-4-(1,2,2,6,6-pentamethylpiperidin-4-ylamino)pyrimidin-2-ylamino)phenoxy)piperidin-1-yl)ethanol] | 500 to 1000 nM

The remaining lines, values ahead:

Row | IC50 | SMILES
19 | > 1000 nM | CC1(C)CC(Nc2nc(Nc3ccc(OC4CCNCC4)c(OC(F)F)c3)ncc2F)CC(C)(C)N1 [III-28, N2-(3-(difluoromethoxy)-4-(piperidin-4-yloxy)phenyl)-5-fluoro-N4-(2,2,6,6-tetramethylpiperidin-4-yl)pyrimidine-2,4-diamine]
20 | > 1000 nM | CC1(C)CC(Nc2nc(Nc3ccc(OC4CCS(=O)(=O)CC4)c(OC(F)F)c3)ncc2F)CC(C)(C)N1 [III-32, N2-[3-Difluoromethoxy-4-(1,1-dioxo-hexahydro-1λ6-thiopyran-4-yloxy)-phenyl]-5-fluoro-N4-(2,2,6,6-tetramethyl-piperidin-4-yl)-pyrimidine-2,4-diamine]
21 | > 1000 nM | CC1(C)CC(Nc2nc(Nc3ccc(OC4CCN(CC(N)=O)CC4)c(OC(F)F)c3)ncc2F)CC(C)(C)N1 [III-36, 2-(4-(2-(Difluoromethoxy)-4-(5-fluoro-4-(2,2,6,6-tetramethylpiperidin-4-ylamino)pyrimidin-2-ylamino)phenoxy)piperidin-1-yl)acetamide]
22 | 500 to 1000 nM | CC1(C)CC(Nc2nc(Nc3ccc(OC4CCN(CCO)CC4)c(OC(F)F)c3)ncc2F)CC(C)(C)N1 [III-38, 2-(4-(2-(Difluoromethoxy)-4-(5-fluoro-4-(2,2,6,6-tetramethylpiperidin-4-ylamino)pyrimidin-2-ylamino)phenoxy)piperidin-1-yl)ethanol]
23 | 500 to 1000 nM | CC(C)N1CC(Oc2ccc(Nc3ncc(F)c(NC4CC(C)(C)NC(C)(C)C4)n3)cc2OC(F)F)C1 [III-39, N2-(3-(Difluoromethoxy)-4-(1-isopropylazetidin-3-yloxy)phenyl)-5-fluoro-N4-(2,2,6,6-tetramethylpiperidin-4-yl)pyrimidine-2,4-diamine]
24 | 250 to 500 nM | CC(C)N1CCCC(Oc2ccc(Nc3ncc(F)c(NC4CC(C)(C)NC(C)(C)C4)n3)cc2OC(F)F)CC1 (centres unmarked) [III-40, N2-(3-(difluoromethoxy)-4-(1-isopropylazepan-4-yloxy)phenyl)-5-fluoro-N4-(2,2,6,6-tetramethylpiperidin-4-yl)pyrimidine-2,4-diamine]
25 | < 250 nM | CC(C)N1CCCC(Oc2ccc(Nc3ncc(F)c(NC4CC(C)(C)N(C)C(C)(C)C4)n3)cc2OC(F)F)CC1 (centres unmarked) [III-41, N2-(3-(difluoromethoxy)-4-(1-isopropylazepan-4-yloxy)phenyl)-5-fluoro-N4-(1,2,2,6,6-pentamethylpiperidin-4-yl)pyrimidine-2,4-diamine]
26 | 500 to 1000 nM | CC(=O)N1CCCC(Oc2ccc(Nc3ncc(F)c(NC4CC(C)(C)NC(C)(C)C4)n3)cc2OC(F)F)CC1 (centres unmarked) [III-42, 1-(4-(2-(difluoromethoxy)-4-(5-fluoro-4-(2,2,6,6-tetramethylpiperidin-4-ylamino)pyrimidin-2-ylamino)phenoxy)azepan-1-yl)ethanone]
27 | < 250 nM | CC(=O)N1CCCC(Oc2ccc(Nc3ncc(F)c(NC4CC(C)(C)N(C)C(C)(C)C4)n3)cc2OC(F)F)CC1 (centres unmarked) [III-43, 1-(4-(2-(difluoromethoxy)-4-(5-fluoro-4-(1,2,2,6,6-pentamethylpiperidin-4-ylamino)pyrimidin-2-ylamino)phenoxy)azepan-1-yl)ethanone]
28 | 500 to 1000 nM | CC(=O)N1CCC(Oc2ccc(Nc3ncc(F)c(NC4CC(C)(C)NC(C)(C)C4)n3)cc2OC(F)F)CC1 [III-44, 1-(4-(2-(difluoromethoxy)-4-(5-fluoro-4-(2,2,6,6-tetramethylpiperidin-4-ylamino)pyrimidin-2-ylamino)phenoxy)piperidin-1-yl)ethanone]
29 | 250 to 500 nM | CC1(C)CC(Nc2nc(Nc3ccc(OC4CCN(CCF)CC4)c(OC(F)F)c3)ncc2F)CC(C)(C)N1 [III-50, N2-(3-(difluoromethoxy)-4-(1-(2-fluoroethyl)piperidin-4-yloxy)phenyl)-5-fluoro-N4-(2,2,6,6-tetramethylpiperidin-4-yl)pyrimidine-2,4-diamine]
